Results: US12104195B2, “Reelin/VEGF-C production/activation promoter and skin external composition using the same” (Amorepacific Corporation, priority 2022, dated 2024)

Assays:
VEGF-C = VEGF-C cytokine analysis (VEGFC Human ELISA Kit) in normal human epidermal keratinocytes; assay type: cell-based; settings: NHEK, 48 hours, compared with DMSO control group (100%); extract 1-100 μg/ml, compound 100-2000 nmoles; FIGS. 5 and 6
Experimental: Normal human epidermal keratinocytes were cultured in 6 well plates for 24 hours, while treated with DMSO as a control group (reference; 100%), treated with the fermented ginseng extract of the preparation example and the compound represented by Chemical Formula 1-1 (Sigma-Aldrich Co., Ltd.) at each concentration of 1, 10, 20, 50 and 100 μg/ml and at each concentration of 100, 250, 500, 1000, and 2000 nmoles, cultured for 48 hours, and then measured with respect to production and activity of VEGF-C through VEGF-C cytokine analysis by using VEGFC Human ELISA Kit (ThermoFisher Scientific, U.S.A.) according to a manual, and the results are shown in FIGS. 5 and 6.

reelin = assay: Reelin cytokine analysis (Human reelin ELISA Kit) in human dermal lymphatic endothelial cells; assay type: cell-based; settings: HDLEC, 48 hours, compared with DMSO control group (100%); extract 1-100 μg/ml, compound 100-2000 nmole; FIGS. 3 and 4
Experimental: Human dermal lymphatic endothelial cells were cultured in 6 well plates for 24 hours, while treated with DMSO as a control group (reference; 100%), treated with the fermented ginseng extract of the preparation example and the compound represented by Chemical Formula 1-1 (Sigma-Aldrich Co., Ltd.) at each concentration of 1 μg/ml, 10 μg/ml, 20 μg/ml, 50 μg/ml, and 100 μg/ml and at each concentration of 100 nmole, 250 nmole, 500 nmole, 1000 nmole, and 2000 nmole, cultured for 48 hours, and then measured with respect to production and activity of reelin through a reelin cytokine analysis according to a manual by using Human reelin ELISA Kit (Mybiosource, Inc., U.S.A.), and the results are shown in FIGS. 3 and 4.

CC(C)=CCC[C@](C)(O[C@@H]1O[C@H](CO[C@@H]2O[C@H](CO)[C@@H](O)[C@H](O)[C@H]2O)[C@@H](O)[C@H](O)[C@H]1O)[C@H]1CC[C@]2(C)[C@@H]1[C@H](O)C[C@@H]1[C@@]3(C)CC[C@H](O[C@@H]4O[C@H](CO)[C@@H](O)[C@H](O)[C@H]4O)C(C)(C)[C@@H]3CC[C@]12C
production and activity of VEGF-C (VEGF-C): more improved the production and activity of VEGF-C
production and activity of reelin (reelin): improved production and activity of reelin
